Results on 5 compounds are retold here after patent US10011587B2, “Multivalent ligands targeting VEGFR” (THE METHODIST HOSPITAL SYSTEM, priority 2014, dated 2018).

SMILES strings stand for the structures.

A short description of series [1]: In vitro cell viability (MTT), cancer cell lines. To be noted: human, MDA-MB-231, HCT-116 and U-87-MG cancer cells; 100 μM, cancer cell lines, 72 h; read-out: cells remaining viable. Format: cell-based, human. As for the experimental part: (§1) MDA-MB-231 and U-87-MG cell lines were cultured in DMEM medium (Gibco, Grand Island, N.Y.) containing 10% fetal bovine serum (FBS) and 1% penicillin streptomycin at 37° C. in a humidified atmosphere of 5% CO2 in air. HCT 116 (human, colorectal carcinoma cell line) was grown in McCoy's 5a medium modified with 10% FBS. HUVECs (Human Umbilical Vein Endothelial cells) were grown in EGM medium (Lonza), supplemented with 20% FBS, 100 U/mL penicillin, 100 μg/mL streptomycin at 37° C. under a humidified atmosphere of 5% CO2 and 95% O2 with same condition as above. For the cell viability assay, the cells were then seeded into 96-well flat-bottomed tissue-culture plates at 1×10^4 cells/well and incubated for 24 or 72 h in humidified atmosphere of 5% (v/v) CO2 at 37° C. in the presence of each compound. For HUVECs, the flat-bottomed 96-well plate (Corning, N.Y., USA) was coated 1 h at 37° C. with gelatin (0.3% in PBS, pH 7.4) and then washed with PBS. The cells were then treated with ZD6474 monomer and its dimer compounds in the range from 5 nM to 100 μM concentration mixed with 1% FBS added culture medium (HUVECs was 2% FBS added). Following 24 and 72 h of incubation under 5% CO2 at 37° C., the cells were washed with PBS and cell viability was assessed by MTT colorimetric assay. The absorbance of individual wells was measured by using an automated microplate reader (570 nm; VERSAmax, Molecular Devices Corp., Sunnyvale, Calif.). The data are expressed as the percentage of viable cells compared to the survival of a control group and were presented as mean±s.e. (n=6).

The test system of series [2] is HUVECs. Kind of series: In vitro cell viability (MTT), HUVECs. Format: cell-based, human. As for the experimental part: as §1, with “The cells were then treated with ZD6474 monomer and its dimer compounds in the range from 5 nM to 100 μM concentration mixed with 1% FBS added culture medium (HUVECs was 2% FBS added).” left out, “(n=6).” left out
Series [3] concerns HUVECs. Kind of series: In vitro tubular formation on Matrigel. Format: cell-based, human. Particulars: 10 μM, 6 h. As for the experimental part: Growth factor reduced Matrigel (100 μL, BD Bioscience, San Jose, Calif., USA) was added to each well of a 96-well plate and allowed to polymerize for 30 min at 37° C. HUVECs were suspended in the medium at the density of 4×10^5 cells per milliliter, and 0.1 mL of the cell suspension was added to each well coated with Matrigel in the presence of ZD6474 monomer or ZD6474 dimer Cells were incubated at 37° C. for 6 h, and then photographed. The branch points were counted and averaged.

Series [4] addresses T1, VEGFR2 (Homo sapiens, UniProt P35968).
T1 construct: evaluated by saturation and displacement assays using U87 cells; endogenous in cells; host or cells: U87 (U87MG) human glioblastoma cells
Kind of series: Cell VEGFR2 receptor-binding assay, displacement/competition. To be noted: read-out: 50% inhibitory concentration (IC50). The method, then: Cells were seeded in 12 well plates at concentration of 5×10^5 cells per well the day before the experiment. […] The cells were then washed with cold PBS and trypsinized. The cell-associated radioactivity was measured using γ-counter (Perkin-Elmer, CT) and the Kd values were calculated by fitting the data by nonlinear regression using GraphPad Prism (GraphPad Software, CA). […] The experiment procedures are similar with those used for the saturation study described above. All experiments were carried out with triplicate samples.

The target of series [5] is T2, VEGFR (Homo sapiens, UniProt P35968).
T2 construct: endogenous in cells; host or cells: U-87 MG human glioblastoma cells
Kind of series: VEGFR cell receptor-binding assay, competition against 64Cu-DOTA-ZD-G2. Particulars: U-87 MG cells, 1 uCi 64Cu-DOTA-ZD-G2 per well, 4° C., 1 hour. The method, then: Cells were seeded in 12-well plates at a density about 5×10^5 cells per well the day before the experiment. […] The HPLC purified radio-tracer was re-dissolved in FBS-free DMEM medium and diluted to 1 uCi/100 uL. […] After incubation at 4° C. for 1 hour, the supernatant with free radio tracer was removed carefully and the cells were then washed with cold PBS for three times and trypsinized. The cells were collected and cell pellet associated radioactivity was measured and the binding affinity values (IC50) were calculated by nonlinear regression using GraphPad Prism (GraphPad Software, CA). All experiments were carried out in triplicate.

In series [6] the test system is MDA-MB-231 cells and HUVEC. Briefly: In vitro cellular uptake of FAM-conjugated compounds. Format: cell-based, human. To be noted: 3 h, 100 nM dose. The method, then: Each of the FAM-conjugated compounds was incubated with MDA-MB-231 cells seeded 24 h earlier in a 96 well plate with 1% serum medium. Serial dilutions of the compounds were incubated for 3 h. The treated medium was then exchanged for fresh serum free medium. The remaining compound was then quantified from images taken using a Xenogen IVIS-200 (PerkinElmer, Inc. San Jose, Calif.) fluorescent imaging system. The same was done with HUVEC.

Series [7] relates to VEGF receptor on HUVECs. Briefly: Blocking assay of FAM-conjugated compounds. Format: cell-based, human. Particulars: HUVEC. As for the experimental part: Specific binding of ZD6474-monomer and dimer were tested with blocking studies. Unlabeled ZD6474-monomer and ZD6474-dimer were mixed with the corresponding FAM-conjugated compounds simultaneously for 3 h. Plates were then imaged using the Xenogen IVIS-200 system. Similarly treated cells were fixed in 4% paraformaldehyde and imaged under fluorescent microscopy after staining the nuclei with DAPI.

Series [8] relates to U87-MG human glioblastoma xenograft. Kind of series: Ex vivo tumor accumulation and biodistribution fluorescence imaging. Format: in vivo, nu/nu female mice. The method, then:
The subcutaneous dorsa of five nu/nu female mice (6 weeks old; 20 g) were inoculated bilaterally with 1×10^7 U87-MG human glioblastoma cells overexpressing the VEGF receptor. Once the tumor diameter was approximately 7-8 mm at 21 days post implant, the mice were divided into three groups for the following injections: (a) free FAM (n=1), (b) FAM-labeled ZD6474-monomer (50 μM; n=2), and (c) FAM-labeled ZD6474-dimer (50 μM, n=2). The animals were manually restrained during intravenous tail injection. All tail vein injections were carried out with a 31 gauge needle placed in a lateral tail vein to inject 100 μL of solution. Twenty-four hours post injection, fluorescence images were acquired using a one second exposure time. The tumors and major organs were dissected and imaged again. […] In vivo fluorescence imaging was performed using the Xenogen IVIS 200 imaging system. To better observe the signal without losses and background due to intervening tissue, fluorescence images were collected ex vivo. Raw counts for each organ were measured using the Xenogen software by drawing oval regions of interest (ROI) around the organ of interest. […] An estimate of the percentage of injected dose accumulated in the tumors was established by comparing measured counts/volume of tissue with the measured counts/volume of a known concentration of the same compound in water at the same exposure. […]

Series [9] has as its system MDA-MB-231, HCT-116, U-87-MG. Kind of series: In vitro cell viability (MTT), cancer cell lines. Format: cell-based, human. As for the experimental part: as §1
In series [10] the test system is VEGF165-induced angiogenesis. Kind of series: In vivo Matrigel plug assay. Also on record: species or system nu/nu nude mice. To be noted: VEGF165 500 ng/mL, compound 100 μM, 10 days. The method, then: The matrigel plug assays were performed injecting 637 μL of growth factor reduced liquid Matrigel-PBS mixture was into subcutaneously into the flanks of nu/nu nude mice at 4° C. Once inside the animals, the liquid Matrigel-PBS mixture solidifies. For comparison, Matrigel alone as well as Matrigel containing VEGF165 (Peprotech, Rocky Hill, N.J.) at a final concentration of 500 ng/mL to stimulate angiogenesis, and Matrigel with VEGF165 along with either ZD6474 monomer, ZD6474 dimer at a final concentration of 100 μM were used. All of the injection groups consisted of three mice. After 10 days, the mice were sacrificed and the Matrigel plugs were removed, fixed in 4% formalin and photographed.

T2 sequence (P35968 20-1356): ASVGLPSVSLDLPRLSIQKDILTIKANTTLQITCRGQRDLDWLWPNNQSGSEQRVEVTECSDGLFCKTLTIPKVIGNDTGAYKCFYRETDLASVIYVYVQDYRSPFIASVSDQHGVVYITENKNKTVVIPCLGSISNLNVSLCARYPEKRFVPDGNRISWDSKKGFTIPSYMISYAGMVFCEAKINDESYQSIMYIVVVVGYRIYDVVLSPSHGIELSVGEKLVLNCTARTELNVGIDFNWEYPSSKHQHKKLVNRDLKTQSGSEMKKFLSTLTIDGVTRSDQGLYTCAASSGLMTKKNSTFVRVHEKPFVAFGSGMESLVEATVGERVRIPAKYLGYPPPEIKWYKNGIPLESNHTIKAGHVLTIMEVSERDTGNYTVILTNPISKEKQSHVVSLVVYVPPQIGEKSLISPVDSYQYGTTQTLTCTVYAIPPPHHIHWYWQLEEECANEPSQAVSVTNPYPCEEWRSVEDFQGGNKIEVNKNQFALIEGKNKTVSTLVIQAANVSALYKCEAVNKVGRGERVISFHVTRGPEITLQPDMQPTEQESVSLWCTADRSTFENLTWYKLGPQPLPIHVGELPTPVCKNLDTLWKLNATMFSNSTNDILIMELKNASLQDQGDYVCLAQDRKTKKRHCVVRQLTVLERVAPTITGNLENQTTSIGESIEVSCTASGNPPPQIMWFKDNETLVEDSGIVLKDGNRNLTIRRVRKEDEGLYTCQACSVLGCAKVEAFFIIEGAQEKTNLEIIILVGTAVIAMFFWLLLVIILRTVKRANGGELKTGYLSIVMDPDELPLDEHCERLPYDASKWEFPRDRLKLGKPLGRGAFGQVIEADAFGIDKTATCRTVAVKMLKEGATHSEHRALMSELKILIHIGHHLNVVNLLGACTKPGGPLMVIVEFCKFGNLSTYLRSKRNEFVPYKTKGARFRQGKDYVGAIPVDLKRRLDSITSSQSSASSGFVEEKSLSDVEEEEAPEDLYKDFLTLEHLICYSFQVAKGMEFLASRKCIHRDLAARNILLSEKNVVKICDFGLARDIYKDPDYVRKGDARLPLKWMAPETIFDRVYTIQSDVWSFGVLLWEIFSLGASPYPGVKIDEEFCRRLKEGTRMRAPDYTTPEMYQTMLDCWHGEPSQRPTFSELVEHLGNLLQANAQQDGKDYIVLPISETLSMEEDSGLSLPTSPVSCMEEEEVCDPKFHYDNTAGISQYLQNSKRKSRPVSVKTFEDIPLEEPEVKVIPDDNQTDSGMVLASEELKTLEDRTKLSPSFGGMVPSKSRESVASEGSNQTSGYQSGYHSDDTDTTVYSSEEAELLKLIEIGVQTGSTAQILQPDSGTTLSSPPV
T1 sequence (P35968 20-1356): as above

Regarding `COc1cc2c(Nc3ccc(Br)cc3F)ncnc2cc1OCC1CCN(C)CC1` [ZD-G1, vandetanib, reference compound], the viability at 72 h, 100 µM in series [1] is ~50%. Also, the “concentration at which cell viability begins to be affected” value in series [2] was 500 nM. Moreover, the “number of tube branches (control group 100%)” value in series [3] is reported as 52.0±4.8%.

For `COc1cc2c(Nc3ccc(Br)cc3F)ncnc2cc1OCC1CCN(C(=O)OCCN(CCOC(=O)NCCN)CCOC(=O)N2CCC(COc3cc4ncnc(Nc5ccc(Br)cc5F)c4cc3OC)CC2)CC1` [ZD-G2], the results for the IC50 in series [4] and in series [5] were 0.023 ± 0.002 nM and 0.026 nM, respectively.

With `COc1cc2c(Nc3ccc(Br)cc3F)ncnc2cc1OCC1CCN(C(=O)CCCCCC(NC(=O)c2ccc(C(=O)O)c(-c3c4ccc(=O)cc-4oc4cc(O)ccc34)c2)C(=O)N2CCC(COc3cc4ncnc(Nc5ccc(Br)cc5F)c4cc3OC)CC2)CC1` (stereo not shown) [dimer-FAM], in series [6], the “uptake in HUVECs compared with MDA-MB-231 cells” value is “overall higher uptake of dimer-FAM by HUVECs”. Besides, in series [7] (100 μM ZD6474-dimer), the “blocking of fluorescence (cellular uptake images)” value is recorded as “Complete blocking of fluorescence”. Further, the “loss of FAM signal when mixed with unlabeled dimer” value in series [7] (100× unlabeled ZD6474-dimer, 3 h) is ~90%. In series [8] (24 h after i.v. injection, estimate against known dye concentrations), the “total injected dose ending up in the tumors” value is reported as “at least 6%”. Also, the “fluorescent intensity of tumors relative to tumors in other groups and organs” value in series [8] (ex vivo, 24 h following i.v. injection) is on record as “about 20 ×”.

As to `COc1cc2c(Nc3ccc(Br)cc3F)ncnc2cc1OCC1CCN(C(=O)CCCCCC(N)C(=O)N2CCC(COc3cc4ncnc(Nc5ccc(Br)cc5F)c4cc3OC)CC2)CC1` (stereo not shown) [ZD6474-dimer], the “toxicity to the cancer cells” value in [9] (5 nM to 50 μM) is given as “low toxicity”. In addition, the cells remaining viable entry in series [9] (100 μM, cancer cell lines, 72 h) is “around 50%”. In addition, the “concentration at which cell viability begins to be affected” value in series [2] is 500 nM. The “number of tube branches (control group 100%)” value in series [3] came to 75±5.2%. Moreover, in series [10], the “appearance of Matrigel plugs (blood vessel formation)” value is listed as “almost the same as the PBS treated negative control group”.

Regarding `COc1cc2c(Nc3ccc(Br)cc3F)ncnc2cc1OCC1CCN(C(=O)c2ccc(C(=O)O)c(-c3c4ccc(=O)cc-4oc4cc(O)ccc34)c2)CC1` [monomer-FAM], the “mean blocked signal relative to blocked dimer FAM” value in series [7] (100× unlabeled compound, 10 μM dose) is given as “over 10 ×”.
